This note sets out measurements from patent US12331048B2, “Pyrido-[3,4-d]pyridazine amine derivatives useful as NLRP3 inhibitors” (Ventus Therapeutics U.S., Inc., priority 2022, dated 2025).

One data set concerns the target T1, NLRP3 (Homo sapiens, UniProt Q96P20).
T1 construct: endogenous in cells
Kind of data set: Human whole blood (hWB) NLRP3 assay. Type of data set: cell-based. To be noted: LPS priming 1 μg/ml, ATP activation, read-out: hWB IC50 (raw activity data). On the procedure: Heparin lithium coated tubes were used to collect blood from volunteers. Blood samples were distributed on 96 well plates using 90 μl per well. Priming was performed by adding 5 μl of LPS (O26:B6; Sigma L-2654) at a final concentration of 1 μg/ml for 4.5 hours in a humidified incubator with 37° C., 5% CO2. Thirty minutes prior to NLRP3 activation, 5 μl of a 20× compound solution or vehicle (2% DMSO) was added to each well and plates were incubated on a shaker (450 rpm) in a humidified incubator with 37° C., 5% CO2. Activation was then performed by adding 3.3 μl of a 31×ATP solution per well. At the end of the 30 minutes stimulation, the plates were centrifuged (800 g, 10 min. room temperature) and the plasma from each well was frozen at −80° C. […] levels in the supernatant were analyzed using a mesoscale discovery assay (MSD K151TUK) according to the manufacturers' instructions. Human whole blood was drawn from healthy volunteers after obtaining written informed consent.
Table D assigns each compound a code for potency in the human whole blood (hWB) NLRP3 Assay: A or B. According to the code. […] The corresponding raw activity data is also included.

Data set [1] can be described thus: Brain levels (kp and kpu,u) after oral administration. The class given is in vivo, CDI mice. As to conditions: mice, 20 mpk PO; for Kp at 24 h / Kpu,u (unbound brain-to-plasma ratio): CDI, mouse, brain / plasma, po, 20 mg/kg; for Kp at 24 h: whole brain AUC over 24 h divided by plasma AUC; for Kpu,u (unbound brain-to-plasma ratio) / kpu,u (code): kp corrected with mouse plasma protein binding and mouse brain homogenate binding. How it is done: The in vivo total brain to plasma ratio was assessed in CDI mice after oral administration of the compound. Blood was collected at several timepoints up to 24 h, and transferred into plastic micro centrifuge tubes with EDTA-K2 as anticoagulant. Blood samples were centrifuged at 4000 g for 5 minutes at 4° C. to obtain plasma, then immediately frozen and stored at −75±15° C. prior to analysis. Animals were terminally anaesthetized with a rising concentration of CO2 gas at about 1 minute. At selected timepoints, whole brains were removed from the skull, rinsed in cold PBS to remove blood, dried with clean gauze, then frozen in liquid nitrogen and kept at −75±15° C. before analysis. At the time of analysis, brain samples were homogenized with PBS by tissue weight (g) to PBS volume (mL) ratio 1:3. Plasma and brain drug levels were quantified by LC/MS/MS on a AB Sciex Triple Quad 5500+ instrument, after separation on a HALO 160A ES-C18, 2.7 μm 2.1-50 mm column. Quantitation was performed using a calibration curve prepared in blank plasma or blank brain homogenate. The software WinNonlin (Phoenix™) was used for pharmacokinetic analysis from the concentrations versus time data, including the AUCinf and AUClast. The Kp ratio (total brain concentration over total plasma concentration) was calculated as (AUCtot,br)/(AUCtot,pl).
The unbound brain exposure was assessed as Kpuu, which is the free brain/free plasma concentration ratio (Cu,br/Cu,pl). The Cu,br/Cu,pl ratios were obtained from in vivo total brain to plasma ratios (Ctot,br/Ctot,pl) by using in vitro determined Fu,br and Fu,pl.
Plasma protein binding and brain homogenate protein binding were measured by equilibrium dialysis in a HTDialysis plate. The dialysis membranes were soaked in ultrapure water for 60 minutes to separate strips, then in 20% ethanol for 20 minutes, finally in dialysis buffer for 20 minutes. The dialysis set up was assembled according to the manufacturer's instruction. Each cell received 150 μL of plasma or brain homogenate spiked with 1 mM of compound, and dialyzed against an equal volume of dialysis buffer (PBS). The dialysis plate was sealed and incubated in an incubator at 37° C. with 5% CO2 at 100 rpm for 6 hours. At the end of incubation, compound concentration was measured in both chambers by LC-MS/MS on a Triple Quad™ 5500 from AB Inc after separation on a XSelect Hss T3 2.5μ (2.1×30 mm) column. Free fraction (Fu) was calculated as (Peak Area Ratio buffer chamber/Peak Area Ratio plasma chamber).
Kpuu was calculated as (AUCtot,br×Fu,br)/(AUCtot,pl×Fu,pl).
The below table also assigns each compound a code for kp and kpu,u values: A or B. According to the code. A represents a value of >0.3 and B represents a value of ≤0.3. […] The kpu,u was then calculated upon correcting this kp value with mouse plasma protein binding and mouse brain homogenates binding. A Kpu,u value >0.3 is brain penetrant, and Kpu,u value less than or equal to 0.3 is not brain penetrant. N.D.=not determined. The corresponding raw kp and kpu,u data is also included.

The structures appear in SMILES notation. Where two headings read alike, the source gives them in different places.

T1 sequence (Q96P20 whole entry): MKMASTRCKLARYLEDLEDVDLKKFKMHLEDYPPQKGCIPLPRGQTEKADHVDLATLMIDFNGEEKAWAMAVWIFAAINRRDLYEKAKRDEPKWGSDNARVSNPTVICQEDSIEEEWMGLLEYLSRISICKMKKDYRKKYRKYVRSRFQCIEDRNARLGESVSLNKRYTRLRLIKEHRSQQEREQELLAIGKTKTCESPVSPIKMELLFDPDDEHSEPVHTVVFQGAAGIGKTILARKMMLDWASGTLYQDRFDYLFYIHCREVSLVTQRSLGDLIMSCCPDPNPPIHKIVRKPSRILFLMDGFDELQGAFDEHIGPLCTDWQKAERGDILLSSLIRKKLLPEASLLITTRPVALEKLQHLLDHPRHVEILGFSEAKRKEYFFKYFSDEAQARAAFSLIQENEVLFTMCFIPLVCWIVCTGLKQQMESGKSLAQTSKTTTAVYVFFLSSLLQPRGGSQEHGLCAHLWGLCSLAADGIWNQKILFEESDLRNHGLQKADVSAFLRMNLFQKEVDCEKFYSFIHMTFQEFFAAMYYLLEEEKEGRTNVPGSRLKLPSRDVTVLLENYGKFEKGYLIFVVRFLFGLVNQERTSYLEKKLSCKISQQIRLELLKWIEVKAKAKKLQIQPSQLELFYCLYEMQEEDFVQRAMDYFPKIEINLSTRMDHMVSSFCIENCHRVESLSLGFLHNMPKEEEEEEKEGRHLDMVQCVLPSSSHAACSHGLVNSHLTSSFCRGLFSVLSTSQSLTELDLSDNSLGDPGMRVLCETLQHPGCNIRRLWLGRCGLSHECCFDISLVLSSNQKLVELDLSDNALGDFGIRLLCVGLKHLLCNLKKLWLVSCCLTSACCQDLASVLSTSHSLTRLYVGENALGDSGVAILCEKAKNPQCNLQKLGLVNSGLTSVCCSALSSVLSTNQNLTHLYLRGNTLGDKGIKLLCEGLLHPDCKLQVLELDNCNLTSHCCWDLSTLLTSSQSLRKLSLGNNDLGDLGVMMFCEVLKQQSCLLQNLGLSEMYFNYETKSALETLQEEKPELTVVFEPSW

What is called IC50 is the concentration needed to halve the response being measured. Usually Kp stands for tissue or fluid exposure divided by exposure in the circulation. Regarding `Cc1ccc(-c2nnc(N[C@H]3COC(C)(C)C3)c3cnccc23)c(O)c1F` (single isomer, unassigned) [Compound 12], the IC50 on NLRP3 came out at 820 nM. Also, the Kp at 24 h in data set [1] (read-out: kp (code)) was greater than 0.3. Moreover, the Kp at 24 h in data set [1] (read-out: kp (raw)) stood at 0.33. In data set [1], the Kpu,u (unbound brain-to-plasma ratio) turned out to be 1.3 and the “kpu,u (code)” value was “A (A represents a value of >0.3)”.
In the case of `Cc1ccc(-c2nnc(N[C@H]3CCOCC3(C)C)c3cnccc23)c(O)c1` (single isomer, unassigned) [Compound 13], the IC50 on NLRP3 turned out to be 220 nM. Moreover, the Kp at 24 h in data set [1] (read-out: kp (code)) was greater than 0.3. Besides, in data set [1] (read-out: kp (raw)), the Kp at 24 h was found to be 0.6. In addition, in data set [1], the Kpu,u (unbound brain-to-plasma ratio) turned out to be 0.77 and the “kpu,u (code)” value is given as “A (A represents a value of >0.3)”.
The like results for `Cc1ccc(-c2nnc(N[C@H]3CCOC(C)(C)C3)c3cnccc23)c(O)c1` (single isomer, unassigned) [Compound 14] were, in that order, 510 nM, greater than 0.3, 0.64, 0.33 and “A (A represents a value of >0.3)”.
The corresponding values for `CC1(C)COCC[C@@H]1Nc1nnc(-c2ccc(C(F)(F)F)cc2O)c2ccncc12` (single isomer, unassigned) [Compound 15] are 1200 nM, greater than 0.3, 0.83, 2.2 and “A (A represents a value of >0.3)”.
The corresponding values for `CC1(C)C[C@@H](Nc2nnc(-c3ccc(C(F)F)cc3O)c3ccncc23)CCO1` (single isomer, unassigned) [Compound 16*] are 1800 nM, greater than 0.3, 0.48, 0.59 and “A (A represents a value of >0.3)”.
As to `CC1(C)COCC[C@@H]1Nc1nnc(-c2ccc(C(F)F)cc2O)c2ccncc12` (single isomer, unassigned) [Compound 17], the IC50 at NLRP3 turned out to be 330 nM. The Kp at 24 h in data set [1] (read-out: kp (code)) was greater than 0.3. Further, the Kp at 24 h in data set [1] (read-out: kp (raw)) was found to be 0.69. In data set [1], the Kpu,u (unbound brain-to-plasma ratio) was found to be 1.9 and the “kpu,u (code)” value is given as “A (A represents a value of >0.3)”.
The corresponding values for `C[C@H]1COCC[C@H]1Nc1nnc(-c2ccc(Cl)cc2O)c2ccncc12` (single isomer, unassigned) [Compound 18*] are 890 nM, greater than 0.3, 0.68, 0.47 and “A (A represents a value of >0.3)”.
The corresponding values for `C[C@@H]1COCC[C@H]1Nc1nnc(-c2ccc(Cl)cc2O)c2ccncc12` (single isomer, unassigned) [Compound 18A*] are 1100 nM, greater than 0.3, 0.73, 0.3 and “A (A represents a value of >0.3)”.
The like results for `Oc1cc(C(F)(F)F)ccc1-c1nnc(N[C@H]2COC3(CC3)C2)c2cnccc12` (single isomer, unassigned) [Compound 19] were, in that order, 1400 nM, greater than 0.3, 1.4, 0.81 and “A (A represents a value of >0.3)”.
Consider `CC1(C)CC[C@H](Nc2nnc(-c3ccc(C(F)F)cc3O)c3ccncc23)CO1` (single isomer, unassigned) [Compound 20], for which the IC50 at NLRP3 amounted to 890 nM. Moreover, the Kp at 24 h in data set [1] (read-out: kp (code)) is greater than 0.3. Besides, the Kp at 24 h in data set [1] (read-out: kp (raw)) worked out at 0.61. Besides, in data set [1], the Kpu,u (unbound brain-to-plasma ratio) was 0.46 and the “kpu,u (code)” value is “A (A represents a value of >0.3)”.
For the molecule `CC1(C)OCC[C@H]1Nc1nnc(-c2ccc(C(F)(F)F)cc2O)c2ccncc12` (single isomer, unassigned) [Compound 22], the half-inhibitory concentration (IC50) on NLRP3 stood at 960 nM. In data set [1] (read-out: kp (code)), the Kp at 24 h was greater than 0.3. For the same molecule, the Kp at 24 h in data set [1] (read-out: kp (raw)) is 1.1. For the same molecule, in data set [1], the Kpu,u (unbound brain-to-plasma ratio) turned out to be 0.34 and the “kpu,u (code)” value was “A (A represents a value of >0.3)”.
The corresponding values for `CC1(C)C[C@@H](Nc2nnc(-c3ccc(C(F)F)cc3O)c3ccncc23)CO1` (single isomer, unassigned) [Compound 23] are 120 nM, no more than 0.3, 0.24, 0.33 and “A (A represents a value of >0.3)”.
The corresponding values for `C[C@@H]1C[C@H](Nc2nnc(-c3ccc(Cl)cc3O)c3ccncc23)CCO1` (single isomer, unassigned) [Compound 25A*] are 580 nM, greater than 0.3, 1.1, 0.1 and “B (B represents a value of ≤0.3)”.
The like results for `C[C@H]1C[C@H](Nc2nnc(-c3ccc(Cl)cc3O)c3ccncc23)CCO1` (single isomer, unassigned) [Compound 25C*] were, in that order, 1400 nM, greater than 0.3, 0.65, 0.099 and “B (B represents a value of ≤0.3)”.
For the molecule `C[C@@H]1C[C@@H](Nc2nnc(-c3ccc(Cl)cc3O)c3ccncc23)CCO1` (single isomer, unassigned) [Compound 25D*], at NLRP3, the IC50 came out at 1200 nM. Further, the Kp at 24 h in data set [1] (read-out: kp (code)) was greater than 0.3. Moreover, in data set [1] (read-out: kp (raw)), the Kp at 24 h was determined as 1. Moreover, in data set [1], the Kpu,u (unbound brain-to-plasma ratio) was determined as 0.2 and the “kpu,u (code)” value is listed as “B (B represents a value of ≤0.3)”.
Turning to `[2H]C([2H])([2H])OC(C)(C)CNc1nnc(-c2ccc(C(F)F)cc2O)c2ccncc12` [Compound 2, 5-(difluoromethyl)-2-(4-((2-(methoxy-d3)-2-methylpropyl)amino)pyrido[3,4-d]pyridazin-1-yl)phenol], at NLRP3, the IC50 was determined as 160 nM. Besides, the Kp at 24 h in data set [1] (read-out: kp (code)) was no more than 0.3. Further, the Kp at 24 h in data set [1] (read-out: kp (raw)) is 0.24. Further, in data set [1], the Kpu,u (unbound brain-to-plasma ratio) came out at 2.2 and the “kpu,u (code)” value is listed as “A (A represents a value of >0.3)”.
`OCC1(CNc2nnc(-c3ccc(Cl)cc3O)c3ccncc23)CC1` [Compound 8, 5-chloro-2-(4-(((1-(hydroxymethyl)cyclopropyl)methyl)amino)pyrido[3,4-d]pyridazin-1-yl)phenol, reference compound]: the IC50 at NLRP3 came out at 200 nM. Further, the Kp at 24 h in data set [1] (read-out: kp (raw)) stood at 0.18. For the same molecule, in data set [1], the Kpu,u (unbound brain-to-plasma ratio) came to 0.11 and the “kpu,u (code)” value is listed as “B (B represents a value of ≤0.3)”.
